Experimental data: US20040175419A1, “Control of compactibility through cystallization” (priority 2001, published 2004)
One block for each compound: values may come before it.

Tests used:
Assay type in all cases: physicochemical
[1] = Solid-state stability of crystal forms; conditions: compared with forms 5, 6, 7
Text: Due to the unique structure of the API material at least four different groups of crystal structures were observed (forms 4, 5, 6, 7) and analyzed by single crystal x-ray. […] Orthorhombic Form 6 consisted of a group of isostructural (1:1) solvates which accommodates solvents such as EtOAc, acetone and MEK. […] An exhaustive study of API crystallization on the feasibility of various solvents, control of polymorphs, and robustness of process concluded that the selected form could be consistently produced and kept stable in iPrOAc (or BuOAc)/Heptane (or Cyclohexane), following which a reproducible crystallization procedure in the iPrOAc/heptane solvent system was developed and implemented. This procedure, associated with the aminolysis of penultimate compound (Chemical Abstracts Systematic Name, (αS)-α-(Benzoylthio)-3,4,4-trimethyl-2,5-dioxo-1-imidazolidinebutanoyl-L-leucyl-N,3-dimethyl-L-valinamide), is successful in purging undesirable side products/impurities such as α,α′-Dithiobis[N-[1-[[[2,2-dimethyl-1-[(methylamino)carbonyl]propyl]amino]-carbonyl]-3-methylbutyl]-3,4,4-trimethyl-2,5-dioxo-1-imidazolidinebutanamide] which is the S,S′-dimer of the API. The crystallization procedure is further described in Table 1.

[2] = Tensile strength of square compacts from tri-axial decompression press (Hiestand tablet indices); conditions: square compacts prepared at a solid fraction of 0.85
Experimental: In order to characterize the deformation mechanism of the API, Hiestand's tablet indices (see, E. N. Hiestand and D. P. Smith, Powder Technology, 38, pp 145-159 (1984) hereby incorporated by reference) were evaluated. The identical procedure as developed by E. N. Hiestand, at the Pharmacia and Upjohn company was adapted for evaluating the deformation properties of the API. In brief, square shaped compacts (1.97 cm^2) were prepared using a tri-axial decompression Loomis Engineering press. This tri-axial press facilitates compression pressure relief in three dimensions as opposed to […] as in the uni-axial press. […] Through tri-axial decompression it is possible to produce virtually flawless compacts. The API was compressed with the procedure describe above to produce compacts having a relative density or solid fraction of 0.85. The compacts were then subjected to tensile strength testing on an Instron stress-strain analyzer at a cross head speed of about 0.8 mm/min. This speed allowed the time constant between the peak stress and 1/e times the peak stress to be a constant of 10 seconds. […]
where, σ is the tensile strength calculated and F is the force required to initiate crack propagation in the compact and l and b are the length and breadth of the compact, respectively. […]

[3] = Brittle fracture index (BFI) from compacts with and without a 1 mm hole; conditions: square compacts; scale 0 to 1
Experimental: Similarly, the tensile strength is determined for square compacts that are prepared with a magnified flaw using the tri-axial decompression press and a upper punch having a 1 mm diameter pin spring loaded on its surface. This pin facilitates the introduction of a 1 mm diameter hole in the center of the compact. The tensile strength values of the compacts with and without a hole are used to evaluate the brittle fracture index (BFI) of the material as shown below: [formula]
Where, σT is the tensile strength of the square compacts without a hole in the center and σTo is the tensile strength of the square compacts with a 1 mm hole in the center that acts as a stress concentrator.

[4] = Dynamic indentation hardness by pendulum impact apparatus; conditions: square compacts without a hole
Experimental: The square compacts (without a hole) are then subjected to a dynamic indentation hardness evaluation using a pendulum impact apparatus as described in Tablet Indices^11. The velocity at which the pendulum sphere impacts the compact as well as the speed with which the pendulum sphere is rebound from the compact is recorded. The indentation made on the compact surface by the procedure described above is measured with a surface analyzer that facilitates computation of the chordal radius of the indentation. These measurements are then used to calculate the dynamic indentation hardness of the material using the equation described below: [formula]
where, m and r are the mass and radius of the indenting sphere, respectively and hi and hr are the inbound and rebound heights, respectively and a is the chordal radius of the indentation created on the compact surface. G is acceleration due to gravity. […] This value is much lower than that of the standard compressible filler, Avicel PH 102 that has a hardness of 352 MN/m^2. […] The hardness value for Lot # 2 was 52.9 MN/M^2±8.2 MN/M^2. The increase in hardness of the material from the optimized crystallization process is not significant enough to change the conclusion drawn earlier about its ductility.

[5] = Bonding Index calculated from tensile strength and dynamic indentation hardness
Text: The Bonding Index of the material can be calculated from the tensile strength measurements as well as the dynamic indentation hardness measurements described above using the equation shown below: [formula]
The highest bonding index value observed today is that of microcrystalline cellulose Avicel PH 101 which is 0.04. The bonding index of Lot # 2 was 0.034±0.001.

[6] = Compactability (slope of tensile strength versus compression pressure) of 80% API powder blend compressed on an Instron; conditions: for compactability of the powder blend: 80% bulk drug and 20% excipient
Experimental: In order to evaluate the compressibility and compactability of all API lots generated by modifying the crystallization process, a blend of 80% API, 19.5% microcrystalline cellulose and 0.5% magnesium stearate was prepared by mixing in a tumble mixer for 5 minutes. Each mixture was then compressed on an Instron (Universal Stress-Strain Analyzer) using a 0.5 inch diameter tooling (upper and lower punches and die) at a speed of 100 mm/min at compression forces of 5, 10, 15, 20 and 25 kN each for a replicate of three tablets. The tablet dimensions were measured using a digital Vernier calliper and the strength of the tablets were determined using an Erweka hardness tester. The volume of the tablet can be calculated from the tablet dimensions normalized for the true density of the mixture being compressed. The compressibility curves are generated by plotting the solid fraction of the tablet generated at each compression pressure versus the respective compression pressure. The area under such a curve represents the extent of volume reduction. The force required to break the tablets is normalized for the area of the tablet to obtain the tensile strength value. Slopes for profiles of tensile strength versus the compression pressure represent the compactability of the material while the area under the curve of tensile strength versus the solid fraction of the tablets represents the extent of compaction or toughness of the material.

[7] = Agglomerate size of API crystallized at different supersaturation
Experimental: The crystallization parameters and seeding conditions (using “as is” API at 0.1-0.2%) described in the procedure outlined in Table 1 was adopted as a starting point for modifications. By changing the ratio of solvent/antisolvent (isopropyl acetate/heptane) in step 3 (Table 1) from 1.67 to 1.0 and varying the pot temperature from 80 to 50° C., the degree of supersaturation was increased by a factor of 5 (from about 3.5 to about 17.5). The materials made from these conditions are generally agglomerates formed by a cluster of primary crystals plus the conjunction material which glue these crystals together.
At low supersaturation, large agglomerates (500-1000 μm) with large primary crystals (also large) were obtained. At high supersaturation the procedure generates small agglomerates (200-300 μm) with smaller primary crystals. This is consistent with other crystallization systems, in which nucleation is rate limiting, where high supersaturation favors the formation of agglomerates and mild supersaturation results in elementary crystals. Generally, these agglomerated materials compact quite poorly and create difficulties for large scale, high speed tablet manufacture. […] The manipulation of supersaturation was consequently not pursued further. […]

[8] = Crystallinity by X-ray diffraction after milling; conditions: milled API, FIG. 4
Text: This amorphization through the milling process can lead to chemical instability of the API. […] This clearly illustrated that modification of the crystallization process parameters to achieve higher compactability of the API is the preferred choice.

SMILES: CNC(=O)[C@@H](NC(=O)[C@H](CC(C)C)NC(=O)[C@@H](S)CCN1C(=O)N(C)C(C)(C)C1=O)C(C)(C)C [Form 4, N-[(2S)-2-Mercapto-1-oxo-4-(3,4,4-trimethyl-2,5-dioxo-1-imidazolidinyl)butyl]-L-leucyl-N,3-dimethyl-L-valinamide]
stability of crystal structure in the solid state [1]: did not transform/decompose to other crystalline structures in the solid state

tensile strength [2]: 181.90 N/cm^2 | brittle fracture index (BFI) [3]: 0.20±0.02 | dynamic indentation hardness [4]: 52.9 MN/m^2 | bonding index [5]: 0.034±0.001
SMILES: CNC(=O)[C@@H](NC(=O)[C@H](CC(C)C)NC(=O)[C@@H](S)CCN1C(=O)N(C)C(C)(C)C1=O)C(C)(C)C [Lot# 2, N-[(2S)-2-Mercapto-1-oxo-4-(3,4,4-trimethyl-2,5-dioxo-1-imidazolidinyl)butyl]-L-leucyl-N,3-dimethyl-L-valinamide]

tensile strength ([2]; listed as MMPI Lot# 1): 90.46 N/cm^2 | brittle fracture index (BFI) [3]: 0.14±0.03 | dynamic indentation hardness [4]: 35.8 MN/m^2
SMILES: CNC(=O)[C@@H](NC(=O)[C@H](CC(C)C)NC(=O)[C@@H](S)CCN1C(=O)N(C)C(C)(C)C1=O)C(C)(C)C [Lot# 1, N-[(2S)-2-Mercapto-1-oxo-4-(3,4,4-trimethyl-2,5-dioxo-1-imidazolidinyl)butyl]-L-leucyl-N,3-dimethyl-L-valinamide]

compactability ([6]; 1% ground seeds, with sonication): 12.3 kPa/MPa | product compactability ([6]; 50-g sample, 1% AirJet-milled seeds): 4.2 kPa/MPa | product compactability ([6]; 50-g sample, 1% ball-milled seeds): 5.9 Kpa/MPa | product compactability ([6]; 50-g sample, 1% ground seeds, without sonication): 10.5 kPa/MPa | product compactability ([6]; 50-g sample, 1% seeds crystallized from a ground seeded batch): 5.3 kPa/MPa | compactability ([6]; 50-g sample, 1.5% ball-milled seeds): 7.0 kPa/MPa | compactability ([6]; 50-g sample, 4% ground seeds): 14.4 kPa/MPa | improvement in compactability over material generated by the current process ([6]; 50-g sample, 4% ground seeds): ~10 fold | compactability ([6]; 50-g sample, 5% ground seeds): 12.6 kPa/MPa | powder blend compactability ([6]; 50 g scale, crystallization seeded with 5% large agglomerates): 3.65 kPa/MPa | compactability of the powder blend ([6]; 100 Kg scale, "as is" material at 1.5% seed loading): 2.8-3.4 kPa/Mpa | compactability of the powder blend ([6]; "as is" seed, 0.1% seed loading (representative)): 1.4-1.7 kPa/Mpa | change of compactability after milling ([6]; milled API, FIG. 3): gain in compactability | bonding index [5]: 0.025±0.001 | agglomerate size ([7]; high supersaturation): 200-300 μm | agglomerate size ([7]; low supersaturation): 500-1000 μm | change of crystallinity after milling (X-ray diffraction patterns) [8]: reduction in the crystallinity
SMILES: CNC(=O)[C@@H](NC(=O)[C@H](CC(C)C)NC(=O)[C@@H](S)CCN1C(=O)N(C)C(C)(C)C1=O)C(C)(C)C [API, N-[(2S)-2-Mercapto-1-oxo-4-(3,4,4-trimethyl-2,5-dioxo-1-imidazolidinyl)butyl]-L-leucyl-N,3-dimethyl-L-valinamide]
